Source: US20100261753A1, “METHODS FOR PREVENTING AND/OR TREATING DEGENERATIVE DISORDERS OF THE CENTRAL NERVOUS SYSTEM” (AMICUS THERAPEUTICS, INC., priority 2009, published 2010)

Test: Blood brain barrier penetration after a single p.o. dose in mice
Format: in vivo, mice (C57BL/6)
Details: single 30 mg/kg (free base equivalent) p.o.
Protocol: For this purpose, 8-week old wild-type male mice (C57BL/6) were administered a single 30 mg/kg (free base equivalent) p.o. dose of reference or test compound by gavage (n=3 mice per time point). Dosing solutions were prepared in water. After dosing, mice were euthanized with CO2 at the following time points: 0-, 0.5-, 1-, and 4-hour post-dose. […] Similarly, brains were collected from each mouse. Plasma was derived by spinning whole blood at 2700 g for 10 minutes at 4° C. followed by storage on dry ice. Whole brains were washed in cold PBS to remove contaminating blood, blotted dry, flash frozen on dry ice, and ultimately stored at −80° C. until analysis. To prepare brain samples for analysis, 50-100 mg of tissue was homogenized in […]. Samples were then clarified by centrifugation. Next, 25 μl of the brain homogenate supernatant or 25 μl of plasma were combined with 25 μl of acetonitrile:water (95/5). […] Between 20 and 30 μl sample was injected for analysis. […] When Compound B was analyzed, Compound A was used as internal standard (150.1/130.1). For calculating drug concentrations, raw data for plasma (ng/mL) and brain (ng/g) was converted to nM using the molecular weight of respective compounds and assuming 1 g of tissue is equivalent to 1 mL volume. Concentration as a function of time was plotted in GraphPad Prism version 4.02.

In the case of `O[C@@H]1CNCC(CF)[C@H]1O` (stereo in doubt) [Compound A, (3R,4R,5R)-5-(fluoromethyl)piperidine-3,4-diol], the “blood brain barrier crossing” value (compared to IFG) was “crossed the blood brain barrier more readily as compared to IFG”.

In the case of `O[C@@H]1[C@@H](CCl)CNC[C@H]1O` [Compound B, (3R,4R,5S)-5-(chloromethyl)piperidine-3,4-diol], the brain levels (compared to hydrochloride salt form of Compound A) was “even higher levels of Compound B were detected in brain”.
